Results from publication PMC10609741 (Pharmaceutics, 2023).
Converted amounts (≈) assume the structure as drawn.

What was measured:
[1] = Solubility of the ibuprofen derivative in water in the absence of β-CD (S0), UV 226 nm; type: physicochemical; conditions: water without β-CD, 25 °C, from calibration curves
Procedure: (§1) Stock solutions of β-CD were prepared in the concentration range of 0–15 mmol/L. From each stock solution 1 mL was taken and introduced into thermomixer flasks and 1 mL of suprasaturated solution of 4b, 4g, 4k, 4m was added and stirred at 600 rpm at 25 °C for 24 h, then at 60 °C for 24 h, and finally left to rest, at 25 °C, for another 24 h. UV absorbance was monitored within 190–320 nm on extracts freshly diluted with deionized water, and the maximum wavelength of 226 nm was selected for solubility determinations. All measurements were made in triplicate.

[2] = Phase solubility study with β-CD (apparent solubility constant K1:1); type: physicochemical; conditions: 1:1 complex, K1:1 = Slope/S0(1−Slope); β-CD 0–15 mmol/L
Procedure: as §1

Swiss albino mice [3] = experiment: Tail-flick test; type: in vivo; conditions: oral gavage
Procedure: (§2) The tests were performed using Swiss albino mice (25–30 g) which were divided in groups of eight mice each.
The tail-flick test measures the reflex latency after exposure to a heating source, in order to evaluate the spinal response to pain. The tail flick unit (37360; UgoBasile, Gemonio, Italy) directs heat and stimulates the distal part of the mouse tail. The tail-flick latency is defined as the period before the mouse removed its tail from heat stimuli. The pain response at onset and at 1, 2, 3, and 4 h after administration of drugs, was noted. To prevent tissue lesions, the experiment cut-off time was set at 12 s. The pain inhibition (%) was calculated for each tested compound/β-CD complex and for each group the mean value (±S.E.) was reported.

Swiss albino mice [4] = experiment: Hot-plate test; type: in vivo; conditions: oral gavage; for pain inhibition: after 4 h
Procedure: as §2
A hot-plate test was performed using a hot plate apparatus (DS 37; UgoBasile). The plate was set at 55 ± 0.1 °C and the response latency was noted as the interval between placing the animal on the plate and the occurrence of licking, shaking of the hind paws, or jumping off the surface. The latency of the analgesic response was measured at onset and at 1, 2, 3, and 4 h. The experiment cut-off time was set to 15 s to prevent tissue damage. For each group, the mean value (±S.E.) was reported.

Swiss albino mice [5] = experiment: Acetic acid writhing test; type: in vivo; conditions: acetic acid 1% i.p. 4 h after oral administration, writhes counted over 30 min
Procedure: as §2
To determine visceral pain, a writhing test was used. […] The mice were placed in a large glass cylinder and the number of abdominal writhes was recorded over a period of 30 min. The inhibition (%) of writhings was calculated to ascertain the analgesic effect. For each group, the mean value (±S.E.) was reported.

Swiss albino mice [6] = experiment: Paw formalin test; type: in vivo; conditions: formalin 5% 4 h after oral administration
Procedure: as §2
The analgesic and anti-inflammatory effects of the compounds were evaluated using formalin assay. […] The time (s) that the mice spent licking and/or biting the injected paw was recorded. Depending on the time value, the pain can be classified as neurogenic pain (0 to 5 min), interphase pain (5 to 15 min), and inflammatory pain (15 to 30 min). For each group, the mean value (±S.E.) was reported.

[7] = 1/20 of LD50, maximum after 2 h

Structure (SMILES)	solubility [1]	apparent solubility constant (K1:1) in the presence of β-CD [2]	pain inhibition, maximum effect (Swiss albino mice [3]; [7])	pain inhibition (Swiss albino mice [4])	pain inhibition, maximum effect (Swiss albino mice [3]; 1/20 of LD50, maximum at 3 h)	inhibition of writhings (Swiss albino mice [5])	time of maximum analgesic effect (Swiss albino mice [4]; 1/20 of LD50)	time mice spent licking the formalin-injected paw, first phase (Swiss albino mice [6]; first phase 0–5 min, neurogenic pain)	time mice spent licking the formalin-injected paw, second phase (Swiss albino mice [6]; second phase 15–30 min, inflammatory pain)
CC(C)Cc1ccc(C(C)C(=O)NN2C(=O)CSC2c2ccc(Cl)cc2)cc1 (centres unmarked) [4b]	9.21 µg/mL (≈ 22.1 µM)	771.81 mol⁻¹	25.54%	58.93%					
CC(C)Cc1ccc(C(C)C(=O)NN2C(=O)CSC2c2ccc([N+](=O)[O-])cc2)cc1 (centres unmarked) [4g]	15 µg/mL (≈ 35.1 µM)	723.50 mol⁻¹	24.90%						
CC(C)Cc1ccc(C(C)C(=O)NN2C(=O)CSC2c2ccc(C#N)cc2)cc1 (centres unmarked) [4k]	22.8 µg/mL (≈ 55.9 µM)	713.6510 mol⁻¹		63.03%	32.01%	58.60%			
CC(C)Cc1ccc(C(C)C(=O)NN2C(=O)CSC2c2ccc(N)cc2)cc1 (centres unmarked) [4m]	38.1 µg/mL (≈ 95.9 µM)				44.19%		3 h		
CC(C)Cc1ccc(C(C)C(=O)[O-])cc1.[Na+] (centres unmarked) [Ibu-Na, Ibuprofen sodium, reference compound]				47.22%	45.86%	55.65%		59.50 s	32 s
